What was measured:
Assay in all cases: relative viability (nuclei count vs DMSO), 5 days (fraction); higher = more cells survive
[1] = compound: C=CCNC1=C2C[C@@H](C)C[C@H](OC)[C@H](O)[C@@H](C)/C=C(\C)[C@H](OC(N)=O)[C@@H](OC)/C=C\C=C(/C)C(=O)NC(=CC1=O)C2=O [17-AAG] + NC(=O)Nc1cc(-c2cccc(F)c2)sc1C(=O)N[C@H]1CCCNC1 [AZD7762] (partner 0.2 µM)
How it was run: (§1)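 One day after seeding in 1536-well plates, lung cancer cell lines were dosed by pin tool. Dosing was either single-drug or a fixed anchor-drug dose plus five library-drug doses (not always all listed) in √10 steps. After 5 days, nuclei were stained in one fix-and-stain step and counted on 4× images, and relative viability is the nuclei count of treated wells over that of vehicle wells, given as the median of duplicate plates.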

[2] = compound: C=CCNC1=C2C[C@@H](C)C[C@H](OC)[C@H](O)[C@@H](C)/C=C(\C)[C@H](OC(N)=O)[C@@H](OC)/C=C\C=C(/C)C(=O)NC(=CC1=O)C2=O [17-AAG] + CS(=O)(=O)CCNCc1ccc(-c2ccc3ncnc(Nc4ccc(OCc5cccc(F)c5)c(Cl)c4)c3c2)o1 [Lapatinib] (partner 2 µM)
How it was run: as §1

[3] = compound: C=CCNC1=C2C[C@@H](C)C[C@H](OC)[C@H](O)[C@@H](C)/C=C(\C)[C@H](OC(N)=O)[C@@H](OC)/C=C\C=C(/C)C(=O)NC(=CC1=O)C2=O [17-AAG] + O=C(c1cc(Cc2n[nH]c(=O)c3ccccc23)ccc1F)N1CCN(C(=O)C2CC2)CC1 [Olaparib] (partner 8 µM)
How it was run: as §1

[4] = compound: C=CCNC1=C2C[C@@H](C)C[C@H](OC)[C@H](O)[C@@H](C)/C=C(\C)[C@H](OC(N)=O)[C@@H](OC)/C=C\C=C(/C)C(=O)NC(=CC1=O)C2=O [17-AAG] + Nc1ncn([C@H]2C[C@H](O)[C@@H](CO)O2)c(=O)n1 [Decitabine] (partner 2 µM)
How it was run: as §1

Cell Line | relative viability ([1]; first compound 0.00128 µM) | relative viability ([1]; first compound 0.004048 µM) | relative viability ([1]; first compound 0.0128 µM) | relative viability ([1]; first compound 0.04048 µM) | relative viability ([1]; first compound 0.128 µM) | relative viability ([2]; first compound 0.00128 µM) | relative viability ([2]; first compound 0.004048 µM) | relative viability ([2]; first compound 0.0128 µM) | relative viability ([2]; first compound 0.04048 µM) | relative viability ([2]; first compound 0.128 µM) | relative viability ([3]; first compound 0.00128 µM) | relative viability ([3]; first compound 0.004048 µM) | relative viability ([3]; first compound 0.0128 µM) | relative viability ([3]; first compound 0.04048 µM) | relative viability ([3]; first compound 0.128 µM) | relative viability ([4]; first compound 0.00128 µM) | relative viability ([4]; first compound 0.004048 µM) | relative viability ([4]; first compound 0.0128 µM) | relative viability ([4]; first compound 0.04048 µM) | relative viability ([4]; first compound 0.128 µM)
NCI-H2126 | 0.977 | 0.975 | 0.885 | 0.265 | 0.231 | 0.731 | 0.784 | 0.775 | 0.53 | 0.276 | 0.895 | 0.887 | 0.893 | 0.762 | 0.265 | 0.556 | 0.631 | 0.616 | 0.622 | 0.456
NCI-H2170 | 0.832 | 0.734 | 0.305 | 0.126 | 0.128 | 0.281 | 0.283 | 0.24 | 0.234 | 0.197 | 0.663 | 0.565 | 0.466 | 0.129 | 0.12 | 0.375 | 0.47 | 0.291 | 0.336 | 0.152
NCI-H2347 | 0.891 | 0.578 | 0.472 | 0.26 | 0.22 | 0.938 | 0.96 | 1.04 | 0.647 | 0.432 | 0.589 | 0.607 | 0.496 | 0.349 | 0.341 | 0.659 | 0.631 | 0.558 | 0.453 | 0.386
NCI-H2405 | 0.741 | 0.525 | 0.23 | 0.153 | 0.143 | 1.04 | 0.784 | 0.193 | 0.203 | 0.138 | 0.797 | 0.856 | 0.275 | 0.233 | 0.168 | 0.714 | 0.675 | 0.424 | 0.242 | 0.189
NCI-H3122 | 0.93 | 0.873 | 0.214 | 0.161 | 0.108 | 1 | 0.931 | 0.542 | 0.293 | 0.218 | 0.598 | 0.61 | 0.538 | 0.288 | 0.124 | 0.487 | 0.413 | 0.426 | 0.235 | 0.118
PC-3 [JPC-3] | 0.776 | 0.8 | 0.888 | 0.541 | 0.59 | 0.486 | 0.442 | 0.444 | – | 0.472 | 1.23 | 1.17 | 1.16 | 0.581 | 0.697 | 0.829 | 0.816 | 0.911 | 0.451 | 0.658
PC-14 | 0.288 | 0.293 | 0.144 | 0.0832 | 0.129 | 0.315 | 0.304 | 0.311 | 0.156 | 0.113 | 0.298 | 0.132 | 0.0665 | 0.0524 | 0.0698 | 0.183 | 0.199 | 0.097 | 0.103 | 0.0891
RERF-LC-KJ | 1 | 1.16 | 0.859 | 0.229 | 0.118 | 0.957 | 0.901 | 1.04 | 0.508 | 0.297 | 0.954 | 0.648 | 0.291 | 0.249 | 0.216 | 0.66 | 0.447 | 0.225 | 0.27 | 0.202
